{
  "source": "patent US9975852B2",
  "about": "“Quinoline sulfonyl derivatives and uses thereof” (Health Sciences North Research Institute, priority 2013, dated 2018)",
  "key": {"[1]": {"tested_on": "HeLa", "test": "SRB antiproliferative assay, HeLa", "format": "cell-based", "conditions": "Homo sapiens", "method": "Antiproliferative effects were determined by a sulforhodamine B (SRB) based protocol. For a typical screening experiment, 5,000-10,000 cells were inoculated into 100 μl medium per well of a 96-well microtiter plate as described previously. Briefly, after the inoculation, the microtiter plate was incubated at 37° C., 5% CO2, 95% air and 100% relative humidity for 24 h, prior to addition of experimental drugs. Some of the sample wells were fixed with 25 μl of 50% trichloroacetic acid (TCA) as a control of the cell population for each cell line at the time of drug addition (Tz). An aliquot of the frozen stock was thawed and diluted to the desired final maximum test-concentration with complete medium. […] The cells “stained” with SRB were solubilized with 10 mM trizma base, and the absorbance was read on an automated plate reader at a wavelength of 515-564 nm. The relative growth rate (%) was calculated for each of the compound concentrations according to the following formula: (Ti−Tz)/(C−Tz)×100 In the formula, time zero (Tz), control growth (C), and OD for different concentration of tested compounds (Ti). […] Values were calculated for each of these parameters if the level of activity was reached. However, if the effect was not reached or was exceeded, the value for that parameter was expressed as greater or less than the maximum or minimum concentration tested. […]"}, "[2]": {"tested_on": "HeLa S3 cells", "test": "Confocal microscopy of spindle poles, centrosomes and cytoskeleton, HeLa S3 cells", "format": "cell-based", "text": "All immunocytochemistry experiments were visualized by confocal microscopy using a Zeiss 510 Meta laser scanning microscope (Carl Zeiss) equipped with a 63× objective lens, unless otherwise specified herein. Three lasers were utilized for excitation with the following band pass filter settings used for detection: Argon 488 nm (band pass 505-530), HeNe 543 nm (long pass 560) and 633 nm (long pass 650). All images were captured and analyzed using LSM 510 software included with the microscope (LSM Image Examiner™, Carl Zeiss).\nThe synchronization at the G1/S border (more accurately at the beginning of S phase) was achieved by double thymidine block (DT). Briefly, exponentially growing cells are treated with 2.0 mM thymidine for 18 hours, followed by incubation for 11 hours in drug-free complete medium, by which time most cells are at mid-late G1 phase. The cells are then incubated for another 14 hours in 2.0 mM thymidine to arrest them at the G1/S border. To arrest cells at the G2/M phase, cells were maintained for 18 hours in complete medium containing nocodazole (50 ng/ml). Both these synchronization are reversible.\nVR-23 caused the formation of multiple spindle poles during late G1 phase in HeLa S3 cells (FIG. 9). HeLa S3 cells were synchronized at G2/M by nocodazole (50 ng/ml, 18 hours), followed by incubation for 6 hours in drug-free medium (at which time they were at G1) (see, e.g., FIG. 8). Cells were then incubated in the absence (control) or presence of 5 μM VR-23 for additional 6 hours (see flow cytometry profile in FIG. 8). […] Note the presence of uneven cell sizes (arrows) which may have been generated as a result of nondisjuctional chromosome segregation during mitosis.\nExponentially growing HeLa S3 cells were treated with 5 μM VR-23 for 6 hours, fixed, stained with an antibody specific for α-tubulin and then examined by confocal fluorescent microscopy for changes to their cytoskeletal structure. Sham denotes that the sample was treated exactly the same as VR-23 sample, except that they were not exposed to VR-23. […] HeLa S3 cells were treated with 2 mM thymidine for 18 hours, followed by incubation for 11 hours in drug-free complete medium, by which time most cells were at mid-late G1 phase. The cells were then incubated for another 14 hours in 2.0 mM thymidine in the absence (control) or presence of 10 μM VR-23. Under these conditions, cells are trapped in the beginning of S phase by a second thymidine block. No centrosome was amplified in the control, while over 87% of VR-23 treated cells analyzed contained multiple centrosomes.\nHeLa S3 cells synchronized at the G1/S border by DT treatment were released into cell cycle for 1-6 hours in the absence (control) (FIG. 13A) or presence (FIG. 13B) of VR-23, followed by confocal microscopy. Centrosome amplification was manifested by 3 hour post-DT, although supernumerary started to form by 2 hour post-DT (solid arrows). (Due to experimental variations, centrosome amplification is not visible by 2 hours in all instances). […] More than 70% of cells exposed to VR-23 for 12 hours during S-G2/M contained multiple centrosomes, compared to less than 4% in the control. At least 200 cells were counted for each sample, and each experiment was repeated at least three times.\nHeLa S3 cells synchronized at G1/S by DT were released into normal medium for 6 hours (cells reached ˜G2/M), at which time they were exposed to VR-23 for additional 6 hours. Solid arrows denote spindle assembly complexes. […] Triple MTOC/Three-way-pull phenotype comprises usually more than 50-60% of the total population. The “No attachment” phenotype is usually observed when DNA is not completely condensed."}, "[3]": {"conditions": "VR-23 for 6 hours from 6 hours post-DT"}},
  "data": [
    {"smiles": "O=[N+]([O-])c1ccc(S(=O)(=O)N2CCN(c3ccnc4cc(Cl)ccc34)CC2)c([N+](=O)[O-])c1", "note": "[Compound 1, 7-Chloro-4-(4-(2,4-dinitrophenylsulfonyl)piperazin-1-yl)quinoline]", "values": [
      {"measurement": "IC50", "setting": "[1]", "result": "4.4 ± 3", "unit": "µM"},
      {"measurement": "Cells with multiple spindle phenotype", "setting": "[2]; 5 μM VR-23, 6 hours, late G1", "result": 44.4, "unit": "%"},
      {"measurement": "Cytoskeletal formation", "setting": "[2]; 5 μM VR-23 for 6 hours, α-tubulin staining", "result": "caused abnormal cytoskeletal formation"},
      {"measurement": "Cells containing multiple centrosomes", "setting": "[2]; 10 μM VR-23 during second thymidine block, 14 hours", "result": "over 87%"},
      {"measurement": "Number of cells with multiple centrosomes", "setting": "[2]; 3 hours post DT", "result": "41 ± 11.8"},
      {"measurement": "Number of cells with multiple centrosomes", "setting": "[2]; 6 hours post DT", "result": "55.2 ± 16.7"},
      {"measurement": "Number of cells with multiple centrosomes", "setting": "[2]; 12 hours post DT", "result": "73.2 ± 1.0"},
      {"measurement": "Mitotic cells among 352 cells counted", "setting": "[2]; [3]", "result": 34.1, "unit": "%"},
      {"measurement": "Mitotic cells with abnormal chromosome segregation", "setting": "[2]; [3]", "result": 78.3, "unit": "%"},
      {"measurement": "Triple MTOC/Three-way-pull phenotype, share of total population", "setting": "[2]; [3]", "result": "50-60%"},
      {"measurement": "Cells containing multiple centrosomes", "setting": "[2]; exposed to VR-23 for 12 hours during S-G2/M", "result": "More than 70%"}
    ]}
  ]
}
